From PMC3259734 (ACS medicinal chemistry letters, 2011)
pIC50: −log10 of the molar value. Values after ≈ are worked out from the molar mass of the structure shown. Values joined by “and” are separate entries in the source; they are usually repeats but may differ in a detail not shown here. Equal values may be shown once.

Legend:
Cytotoxicity assays = format: cell-based
M. tuberculosis H37Rv [1] = experiment: DHNA rescue of growth of treated M. tuberculosis; format: cell-based, Mycobacterium tuberculosis; conditions: DHNA 100 μg/ml added to the media; compound at 2xMIC
MenB [2] = molecular target: T1, MenB (Mycobacterium tuberculosis, UniProt P9WNP5); experiment: biochemical; conditions: for ability to inhibit MenB: analogues still able to undergo elimination
M. tuberculosis H37Rv [3] = experiment: Antibacterial activity; format: cell-based, Mycobacterium tuberculosis; conditions: in words
MenB [4] = molecular target: T1, MenB; experiment: Steady state kinetics of MenB inhibition; format: biochemical; conditions: steady state kinetic methods
MenE = experiment: Direct MenE inhibition assay; format: biochemical; conditions: MenE 100 nM; data not shown
[5] = test system: nonreplicating M. tuberculosis (NRP-MTB); conditions: against NRP-MTB; cited from earlier work

T1 sequence (P9WNP5 whole entry): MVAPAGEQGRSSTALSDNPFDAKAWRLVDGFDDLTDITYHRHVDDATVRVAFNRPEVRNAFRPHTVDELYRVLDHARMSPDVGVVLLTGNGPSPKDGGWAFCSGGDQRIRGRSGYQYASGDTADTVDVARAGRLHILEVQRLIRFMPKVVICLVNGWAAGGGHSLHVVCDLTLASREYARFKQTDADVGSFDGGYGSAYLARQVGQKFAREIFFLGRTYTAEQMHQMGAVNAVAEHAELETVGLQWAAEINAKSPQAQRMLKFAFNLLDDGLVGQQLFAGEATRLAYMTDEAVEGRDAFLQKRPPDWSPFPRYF

COC(=O)/C=C/C(=O)c1ccc(F)cc1 [Compound 2b]
selectivity ratio (Cytotoxicity assays): > 20
rescue of growth by DHNA (M. tuberculosis H37Rv [1]): rescue the growth

O=C(O)/C=C/C(=O)c1ccc(Cl)cc1 [Compound 3a]
change of IC50 for MenB inhibition with CoA concentration (MenB [2]; data not shown): decreased as the concentration of CoA increased
antibacterial activity (M. tuberculosis H37Rv [3]): limited antibacterial activity

COC(=O)/C=C/C(=O)c1ccc(Cl)cc1 [Compound 3b, 4-Oxo-4-chlorophenylbutenoyl methyl ester]
selectivity ratio (Cytotoxicity assays): > 20
rescue of growth by DHNA (M. tuberculosis H37Rv [1]): rescue the growth

CC(C(=O)c1ccc(Cl)cc1)C(N[C@@H](C)c1ccccc1)C(=O)O (stereo partly drawn) [Compound 7S]
ability to inhibit MenB (MenB [2]): retained the ability to inhibit MenB

CC(C)(COP(=O)(O)OP(=O)(O)OC[C@H]1O[C@@H](n2cnc3c(N)ncnc32)[C@H](O)[C@@H]1OP(=O)(O)O)[C@@H](O)C(=O)NCCC(=O)NCCSC(CC(=O)c1ccc(Cl)cc1)C(=O)O (stereo partly drawn) [Compound 7]
mode of MenB inhibition (MenB [4]): noncompetitive (mixed)

[2H]C([2H])(C(=O)c1ccccc1Cl)C(N[C@@H](C)c1ccccc1)C(=O)O (stereo partly drawn) [Compound 8S]
ability to inhibit MenB (MenB [2]): retained the ability to inhibit MenB

CC(C)(COP(=O)(O)OP(=O)(O)OC[C@H]1O[C@@H](n2cnc3c(N)ncnc32)[C@H](O)[C@@H]1OP(=O)(O)O)[C@@H](O)C(=O)NCCC(=O)NCCSC(CC(=O)c1ccccc1Cl)C(=O)O (stereo partly drawn) [Compound 10]
mode of MenB inhibition (MenB [4]): noncompetitive (mixed)

CC(C)(COP(=O)(O)OP(=O)(O)OC[C@H]1O[C@@H](n2cnc3c(N)ncnc32)[C@H](O)[C@@H]1OP(=O)(O)O)[C@@H](O)C(=O)NCCC(=O)NCCSC(CC(=O)c1ccc(Cl)cc1Cl)C(=O)O (stereo partly drawn) [Compound 16]
pIC50 (MenB [2]; IC50, 2-CoA-4-oxo-4-phenylbutanoic acids and analogues, Table 2): ~7.00 and 7.00
mode of MenB inhibition (MenB [4]): noncompetitive (mixed)

CC(C)(COP(=O)(O)OP(=O)(O)OC[C@H]1O[C@@H](n2cnc3c(N)ncnc32)[C@H](O)[C@@H]1OP(=O)(O)O)[C@@H](O)C(=O)NCCC(=O)NCCSCCC(=O)c1ccc(Cl)cc1Cl [Compound 18]
concentration up to which MenB was not (significantly) inhibited (MenB [2]): > 400 µM

CC(NC(CC(=O)c1ccc(F)cc1)C(=O)O)c1ccccc1 (stereo not drawn) [Compound 1548L21]
concentration up to which MenE was not inhibited (MenE): > 300 µM

CO[C@H]1/C=C/O[C@@]2(C)Oc3c(C)c(O)c4c(O)c(c(/C=N/N5CCN(C)CC5)c(O)c4c3C2=O)NC(=O)/C(C)=C\C=C\[C@H](C)[C@H](O)[C@@H](C)[C@@H](O)[C@@H](C)[C@H](OC(C)=O)[C@@H]1C [rifampicin]
MIC [5]: 0.4 µg/mL (≈ 0.486 µM)
